A short description of data set [1]: LD50 in the mouse per os (acute toxicity). To be noted: in vivo, po, tested as hydrochloride salt except AC 2, 4 and 9 (free bases). As to the method: The LD50 of the compounds according to the invention was determined in the mouse per os following the method described by C. S. Weil (Biometrics,8, 249, 1952).
In the following Table I, the numbers under AC (active compound) indicate the compounds described in the corresponding Examples (thus "1" indicates the compound prepared in Example 1).
(§1) ^a all compounds were tested as the hydrochloride salt, except for AC
(§2) 2, 4 and 9 (tested as free bases)

Data set [2] relates to spontaneously hypertensive rats. In words: Antihypertensive activity (systolic blood pressure, indirect tail-cuff method) in conscious spontaneously hypertensive rats. The data set is classed as in vivo. The following applies: Rattus norvegicus, po; os, conscious SHR, 1, 3, 5 and 7 hours after administration; from linear regression of dose-response curve; hydrochloride salt except AC 2, 4 and 9 (free bases); read-out: ED25 (drug dose producing a 25% decrease in systolic blood pressure). As for the experimental part: Antihypertensive activity was evaluated in male spontaneously hypertensive rats (SHR, Wister-Kyoto strain, 15-25 weeks old). The determination of blood pressure was performed by the indirect method (M. Gerald et al, Arzneim.-Forsch., 18, 1825, 1968). The animals were prewarmed in a heating chamber at a temperature from 35° to 37° C. for a period of 15 minutes before administering the compounds. The compounds tested by the oral route were dissolved or suspended in a 0.5% methylcellulose solution. Controls were given only the vehicle. Systolic blood pressure and heart rate were measured 1, 3, 5 and 7 hours after drug administration by means of a tail-cuff and the pulse pick-up method using a recorder.
In the Table I, the antihypertensive activity was expressed as ED25, which is the drug dose producing a 25% decrease in systolic blood pressure in conscious spontaneously hypertensive rats. The ED25 was calculated from the linear regression of the dose-response curve.
as §1, §2

SMILES strings stand for the structures. Where a name gives a salt, the structure may show the parent alone.

For `COc1ccccc1N1CCN(CCC(=O)Nc2ccc(S(C)(=O)=O)cc2)CC1` [Example 2, 4-Methylsulphonyl-β-[4-(2-methoxyphenyl)-1-piperazinyl]-propionylanilide], the median lethal dose (LD50) in data set [1] was greater than 3000 mg/kg. The ED25 in data set [2] was found to be 7.5 mg/kg.
As to `COc1ccccc1N1CCN(CCC(=O)Nc2ccc(S(N)(=O)=O)cc2)CC1` [Example 4, 4-Sulphamoyl-β-[4-(2-methoxyphenyl)-1-piperazinyl]-propionylanilide], the LD50 in data set [1] is greater than 3000 mg/kg. Moreover, the ED25 in data set [2] came to 8.1 mg/kg.
For `COc1ccccc1N1CCN(CCC(=O)Nc2ccc(C(N)=O)cc2)CC1` [Example 5, 4-Carbamoyl-β-[4-(2-methoxyphenyl)-1-piperazinyl]-propionylanilide], in data set [1], the 50% lethal dose (LD50) was greater than 3000 mg/kg. In addition, the ED25 in data set [2] was determined as 54.5 mg/kg.
For `COc1ccccc1N1CCN(CCC(=O)Nc2ccc(C(C)=O)cc2)CC1` [Example 6a, 4-acetyl-β-[4-(2-methoxyphenyl)-1-piperazinyl]-propionylanilide], the LD50 in data set [1] amounted to 2200 mg/kg. Further, in data set [2], the ED25 turned out to be 58.5 mg/kg.
Turning to `COc1ccccc1N1CCN(CCC(=O)Nc2cccc(C(F)(F)F)c2)CC1` [Example 6b, 3-trifluoromethyl-β-[4-(2-methoxyphenyl)-1-piperazinyl]-propionylanilide hydrochloride], the LD50 in data set [1] turned out to be 1600 mg/kg. For the same compound, the ED25 in data set [2] was 48.8 mg/kg.
Consider `COc1ccc(NC(=O)CCN2CCN(c3ccccc3OC)CC2)cc1` [Example 6c, 4-methoxy-β-[4-(2-methoxyphenyl)-1-piperazinyl]-propionylanilide], for which the 50% lethal dose (LD50) in data set [1] is greater than 3000 mg/kg. Moreover, the ED25 in data set [2] came to 10 mg/kg.
Take `COc1cccc(NC(=O)CCN2CCN(c3ccccc3OC)CC2)c1` [Example 6d, 3-methoxy-β-[4-(2-methoxyphenyl)-1-(piperazinyl]-propionylanilide hydrochloride]: the 50% lethal dose (LD50) in data set [1] came out at 649 mg/kg. Also, the ED25 in data set [2] worked out at 69 mg/kg.
For `COc1ccccc1N1CCN(CCC(=O)Nc2ccc(C#N)cc2)CC1` [Example 6f, 4-cyano-β-[4-(2-methoxyphenyl)-1-piperazinyl]-propionylanilide] the same measures were 320 mg/kg and 17.2 mg/kg.
Take `COc1ccccc1N1CCN(CCC(=O)Nc2ccc([N+](=O)[O-])cc2)CC1` [Example 7, 4-Nitro-β-[4-(2-methoxyphenyl)-1-piperazinyl]-propionylanilide]: the LD50 in data set [1] is 2100 mg/kg. Further, the ED25 in data set [2] stood at 50.5 mg/kg.
As to `COc1ccccc1N1CCN(CC(=O)Nc2ccc(N)cc2)CC1` [Example 8a], in data set [1], the 50% lethal dose (LD50) was found to be 1000 mg/kg. In addition, the ED25 in data set [2] came out at 70.2 mg/kg.
Take `COc1ccccc1N1CCN(CCC(=O)Nc2ccc(C(C)O)cc2)CC1` (stereo not drawn) [Example 9, 4-(1Hydroxyethyl)-β-[4-(2-methoxyphenyl)-1-piperazinyl]-propionylanilide]: in data set [1], the LD50 was 537 mg/kg. The ED25 in data set [2] came to 69 mg/kg.
As to `COc1ccccc1N1CCN(C(C)CC(=O)Nc2ccc(S(N)(=O)=O)cc2)CC1` (stereo not drawn) [Example 10, 4-Sulphamoyl-β-[4-(2-methoxyphenyl)-1-piperazinyl]-butyrylanilide], the median lethal dose (LD50) in data set [1] was greater than 3000 mg/kg. Moreover, in data set [2], the ED25 was found to be 8.7 mg/kg.
For `COc1ccccc1N1CCN(CCC(=O)Nc2ccc(S(=O)(=O)NC(C)=O)cc2)CC1` [Example 11, 4-Acetylsulphamoyl-β-[4-(2-methoxyphenyl)-1-piperazinyl]-propionylanilide] the same measures were greater than 3000 mg/kg and 100 mg/kg.
With `COc1ccccc1N1CCN(CCC(=O)Nc2ccc(NC(C)=O)cc2)CC1` [Example 12, 4-Acetylamino-β-[4-(2-methoxyphenyl)-1-piperazinyl]-propionylanilide], the median lethal dose (LD50) in data set [1] is greater than 3000 mg/kg. The ED25 in data set [2] stood at 100 mg/kg.
Turning to `COc1ccccc1N1CCN(CCC(=O)Nc2cccc(S(N)(=O)=O)c2)CC1` [Example 13, 3-Sulphamoyl-β-[4-(2-methoxyphenyl)-1-piperazinyl]-propionylanilide hydrate], the 50% lethal dose (LD50) in data set [1] was greater than 3000 mg/kg. Moreover, in data set [2], the ED25 turned out to be 100 mg/kg.
Regarding `COc1ccccc1N1CCN(CCC(=O)Nc2cccc(Cl)c2)CC1` [Example 14, 3-Chloro-β-[4-(2-methoxyphenyl)-1-piperazinyl]-propinylanilide], the LD50 in data set [1] is greater than 3000 mg/kg. Besides, the ED25 in data set [2] came to 100 mg/kg.
`COc1ccccc1N1CCN(CCC(=O)Nc2ccc3c(c2)OCO3)CC1` [Example 19, 3,4-Methylenedioxy-β-[4-(2-methoxyphenyl)-1-piperazinyl]-propionylanilide]: the LD50 in data set [1] came out at 340 mg/kg. In data set [2], the ED25 was determined as 100 mg/kg.
`COc1ccccc1N1CCN(CCC(=O)Nc2cc(OC)c(OC)c(OC)c2)CC1` [Example 20, 3,4,5-Trimethoxy-β-[4-(2-methoxyphenyl)-1-piperazinyl]-propionylanilide hydrochloride]: in data set [1], the LD50 came out at 730 mg/kg. The ED25 in data set [2] came to 60 mg/kg.
For `COc1ccccc1N1CCN(CCC(=O)Nc2ccc(S(=O)(=O)N(C)C)cc2)CC1` [Example 21, 4-(Dimethylsulphamoyl)-β-[4-(2-methoxyphenyl)-1-piperazinyl]-propionylanilide] the same measures were greater than 3000 mg/kg and 60 mg/kg.
